Experimental data published in patent US9415055B2, “Cyclic amines” (H. Lundbeck A/S, priority 2012, dated 2016).

These molecules were tested against P2X7 receptor (Homo sapiens (Human), UniProt Q99572) (assay: P2X7 FLIPR assay: antagonism of BzATP response in 293 HEK cells stably expressing P2X7 receptor). Conditions: FLIPR fluorescence (Fluo-4), agonist BzATP, 293 HEK cells stably transfected with P2X7 receptor.
Format: cell-based
How it was run: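 Antagonist IC50 derived from FLIPR Tetra Fluo-4 calcium signal evoked by BzATP. Compound pre-incubation was 30 min at room temperature on P2X7-expressing HEK293 cells, seeded 24 h before in low-serum medium and dye-loaded 30 min at 37 °C then 30 min at RT.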

P2X7 receptor, sequence (Q99572 whole entry): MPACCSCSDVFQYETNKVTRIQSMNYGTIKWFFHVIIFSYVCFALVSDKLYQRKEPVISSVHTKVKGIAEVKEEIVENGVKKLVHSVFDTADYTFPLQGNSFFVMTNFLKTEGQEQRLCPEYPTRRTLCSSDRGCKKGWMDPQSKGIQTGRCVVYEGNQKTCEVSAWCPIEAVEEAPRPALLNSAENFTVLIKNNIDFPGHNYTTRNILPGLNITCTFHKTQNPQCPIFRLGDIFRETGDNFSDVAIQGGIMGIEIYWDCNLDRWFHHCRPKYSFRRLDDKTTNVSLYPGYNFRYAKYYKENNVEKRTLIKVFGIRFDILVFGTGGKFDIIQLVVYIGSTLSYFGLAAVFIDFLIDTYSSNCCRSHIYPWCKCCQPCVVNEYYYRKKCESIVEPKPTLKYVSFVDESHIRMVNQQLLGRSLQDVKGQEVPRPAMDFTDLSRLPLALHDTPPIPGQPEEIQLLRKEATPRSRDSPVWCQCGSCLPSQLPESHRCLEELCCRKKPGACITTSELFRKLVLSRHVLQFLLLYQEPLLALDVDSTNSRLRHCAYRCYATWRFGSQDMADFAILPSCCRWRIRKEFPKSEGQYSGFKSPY

Compared with O=C(NCC(c1cnc(C(F)(F)F)nc1)N1CCOCC1)c1ccccc1Cl (single isomer, unassigned; (-)) [(−)2-chloro-N-[2-morpholino-2-[2-(trifluoromethyl)pyrimidin-] [(−)2-Chloro-N-[2-morpholino-2-[2-(trifluoromethyl)pyrimidin-5-yl]ethyl]benzamide], O=C(NCC(c1cnc(C(F)(F)F)nc1)N1CCOCC1)c1cccc(Cl)c1Cl (single isomer, unassigned; (-)) [(−)2,3-dichloro-N-[2-morpholino-2-[2-(trifluoromethyl)pyrimi] [(−)2,3-Dichloro-N-[2-morpholino-2-[2-(trifluoromethyl)pyrimidin-5-yl]ethyl]benzamide] is 4.7-fold lower in IC50: 15 nM for the first, 3.2 nM for the second. The second is the more potent here.

First: O=C(NCC(c1cnc(C(F)(F)F)nc1)N1CCOCC1)c1cccc(C(F)(F)F)c1Cl (single isomer, unassigned; (+)) [(+)2-chloro-N-[2-morpholino-2-[2-(trifluoromethyl)pyrimidin-] [(+)2-Chloro-N-[2-morpholino-2-[2-(trifluoromethyl)pyrimidin-5-yl]ethyl]-3-(trifluoromethyl)benzamide]
Second: O=C(NCC(c1cnc(C(F)(F)F)nc1)N1CCOCC1)c1cccc(Cl)c1Cl (stereo not shown) [2,3-dichloro-N-[2-morpholino-2-[2-(trifluoromethyl)pyrimidin] [2,3-Dichloro-N-[2-morpholino-2-[2-(trifluoromethyl)pyrimidin-5-yl]ethyl]benzamide]
The IC50 of the first is 2.1-fold higher: 17 nM for the first, 8.2 nM for the second.

First: O=C(NCC(c1cnc(C(F)F)nc1)N1CCOCC1)c1cccc(Cl)c1Cl (single isomer, unassigned; (-)) [(−)2,3-dichloro-N-[2-[2-(difluoromethyl)pyrimidin-5-yl]-2-mo] [(−)2,3-dichloro-N-(2-(2-(difluoromethyl)pyrimidin-5-yl)-2-morpholinoethyl)benzamide]
Second: O=C(NCC(c1ccc(Cl)nc1)N1CCOCC1)c1cccc(Cl)c1Cl (stereo not shown) [2,3-Dichloro-N-[2-(6-chloro-3-pyridyl)-2-morpholino-ethyl]benzamide]
The IC50 of the first is 2.5-fold higher: 9.6 nM for the first, 3.9 nM for the second.

O=C(NCC(c1cnc(C(F)(F)F)nc1)N1CCC(F)(F)CC1)c1c(Cl)ccc(F)c1Cl (single isomer, unassigned; (-)) [(−)2,6-dichloro-N-[2-(4,4-difluoro-1-piperidyl)-2-[2-(triflu] [(−)2,6-dichloro-5-fluoro-N-(2-(4,4-difluoropiperidin-1-yl)-2-(2-(trifluoromethyl)pyrimidin-5-yl)ethyl)benzamide] and O=C(NCC(c1cnc(C(F)(F)F)nc1)N1CCC(F)(F)CC1)c1c(Cl)cccc1Cl (single isomer, unassigned; (-)) [(−)2,6-dichloro-N-[2-(4,4-difluoro-1-piperidyl)-2-[2-(triflu] [(−)2,6-dichloro-N-(2-(4,4-difluoropiperidin-1-yl)-2-(2-(trifluoromethyl)pyrimidin-5-yl)ethyl)benzamide] are within 1.5-fold of each other in IC50: 4.9 nM for the first, 6.9 nM for the second.

Going from O=C(NCC(c1ccc(C(F)(F)F)nc1)N1CCC(F)(F)CC1)c1c(F)cccc1Cl (single isomer, unassigned; (+)) [(+)2-chloro-6-fluoro-N-(2-(4,4-difluoropiperidin-1-yl)-2-(2-(trifluoromethyl)pyridin-5-yl)ethyl)benzamide] to O=C(NCC(c1ccc(C(F)(F)F)nc1)N1CCC(F)(F)CC1)c1cccc(F)c1Cl (single isomer, unassigned; (-)) [(−)2-chloro-N-[2-(4,4-difluoro-1-piperidyl)-2-[6-(trifluorom] [(−)2-chloro-N-(2-(4,4-difluoropiperidin-1-yl)-2-(2-(trifluoromethyl)pyridin-5-yl)ethyl)-3-fluorobenzamide], the IC50 rises from 0.62 nM to 5.7 nM (9.2-fold).

Compared with Cn1cc(C(CNC(=O)c2cc(F)cc(Cl)c2Cl)N2CCC(F)(F)CC2)cn1 (single isomer, unassigned; (-)) [(−)2,3-dichloro-N-[2-(4,4-difluoro-1-piperidyl)-2-(1-methylp] [(−)2,3-dichloro-5-fluoro-N-(2-(4,4-difluoropiperidin-1-yl)-2-(1-methyl-1H-pyrazol-4-yl)ethyl)benzamide], Cc1ncc(C(CNC(=O)c2cc(F)cc(Cl)c2Cl)N2CCC(F)(F)CC2)cn1 (single isomer, unassigned; (+)) [(+)2,3-dichloro-N-[2-(4,4-difluoro-1-piperidyl)-2-(2-methylp] [(+)2,3-dichloro-5-fluoro-N-(2-(4,4-difluoropiperidin-1-yl)-2-(2-methylpyrimidin-5-yl)ethyl)benzamide] is 5.1-fold lower in IC50: 26 nM for the first, 5.1 nM for the second.

First: COC1CCN(C(CNC(=O)c2cccc(Cl)c2Cl)c2cnc(C)nc2)CC1 (stereo not shown) [2,3-dichloro-N-(2-(4-methoxypiperidin-1-yl)-2-(2-methylpyrimidin-5-yl)ethyl)benzamide]
Second: Cc1ncc(C(CNC(=O)c2cccc(Cl)c2Cl)N2CCC(=O)CC2)cn1 (stereo not shown) [2,3-Dichloro-N-(2-(2-methylpyrimidin-5-yl)-2-(4-oxopiperidin-1-yl)ethyl)benzamide]
The IC50 of the first is 200-fold higher: 3800 nM for the first, 19 nM for the second.

O=C(NCC(c1ccc(C(F)(F)F)nc1)N1CCOCC1)c1cccc(C(F)(F)F)c1Cl (single isomer, unassigned; (+)) [(+)2-chloro-N-[2-morpholino-2-[6-(trifluoromethyl)-3-pyridyl] [(+)2-Chloro-N-[2-morpholino-2-[6-(trifluoromethyl)-3-pyridyl]ethyl]-3-(trifluoromethyl)benzamide] and O=C(NCC(c1ccc(C(F)(F)F)nc1)N1CCOCC1)c1c(F)cccc1Cl (single isomer, unassigned; (+)) [(+)2-chloro-6-fluoro-N-[2-morpholino-2-[6-(trifluoromethyl)-] [(+)2-chloro-6-fluoro-N-(2-morpholino-2-(6-(trifluoromethyl)pyridin-3-yl)ethyl)benzamide] are within 1.5-fold of each other in IC50: 24 nM for the first, 32 nM for the second.

First: O=C(NC[C@H](c1ccc(Cl)cc1)N1CCOCC1)c1cccc(Cl)c1Cl [2,3-Dichloro-N-[(S)-2-(4-chloro-phenyl)-2-morpholin-4-yl-ethyl]benzamide]
Second: O=C(NCC(c1ccc(Cl)cc1)N1CCCC1)c1cccc(Cl)c1Cl (stereo not shown) [2,3-dichloro-N-(2-(4-chlorophenyl)-24 pyrrolidin-1-yl)ethyl)benzamide]
The IC50 of the first is 2900-fold lower: 0.62 nM for the first, 1800 nM for the second. The first is the more potent here.

Compared with Cc1cccc(C(=O)NCC(c2cccnc2)N2CCOCC2)c1C (stereo not shown) [2,3-Dimethyl-N-(2-morpholin-4-yl-2-pyridin-3-yl-ethyl)-benzamide], O=C(NCC(c1ccc(C2CC2)nc1)N1CCOCC1)c1cccc(Cl)c1Cl (stereo not shown) [2,3-Dichloro-N-[2-(6-cyclopropyl-pyridin-3-yl)-2-morpholin-4-yl-ethyl]-benzamide] is 330-fold lower in IC50: 2700 nM for the first, 8.2 nM for the second. The second is the more potent here.

Compared with CC1(C)CCN(C(CNC(=O)c2cccc(F)c2Cl)c2cnc(C(F)(F)F)nc2)CC1 (stereo not shown) [2-chloro-N-[2-(4,4-dimethyl-1-piperidyl)-2-[2-(trifluoromethyl)pyrimidin-5-yl]ethyl]-3-fluoro-benzamide], O=C(NCC(c1cnc(C(F)(F)F)nc1)N1CCC(F)(F)CC1)c1ccccc1Cl (stereo not shown) [2-chloro-N-(2-(4,4-difluoropiperidin-1-yl)-2-(2-(trifluoromethyl)pyrimidin-5-yl)ethyl)benzamide] is 1300-fold lower in IC50: 3600 nM for the first, 2.8 nM for the second.

Compared with Cc1ncc(C(CNC(=O)c2cccc(Cl)c2Cl)N2CCC(F)(F)CC2)cn1 (single isomer, unassigned; (+)) [(+)2,3-dichloro-N-[2-(4,4-difluoro-1-piperidyl)-2-(2-methylp] [(+)2,3-dichloro-N-(2-(4,4-difluoropiperidin-1-yl)-2-(2-methylpyrimidin-5-yl)ethyl)benzamide], Cc1ncc(C(CNC(=O)c2cccc(Cl)c2Cl)N2CCCC(F)(F)C2)cn1 (single isomer, unassigned; (+)) [(+2,3-dichloro-N-(2-(3,3-difluoropiperidin-1-yl)-2-(2-methylpyrimidin-5-yl)ethyl)benzamide] is 4.4-fold higher in IC50: 3.2 nM for the first, 14 nM for the second. The first is the more potent here.

First: Cc1ncc(C(CNC(=O)c2ccccc2Cl)N2CCCC(F)(F)C2)cn1 (single isomer, unassigned; (+)) [(+)2-chloro-N-[2-(3,3-difluoro-1-piperidyl)-2-(2-methylpyrim] [(+)2-chloro-N-(2-(3,3-difluoropiperidin-1-yl)-2-(2-methylpyrimidin-5-A)ethyl)benzamide]
Second: Cc1ncc(C(CNC(=O)c2cccc(Cl)c2Cl)N2CC(F)(F)C(F)(F)C2)cn1 (stereo not shown) [2,3-dichloro-N-(2-(2-methylpyrimidin-5-yl)-2-(3,3,4,4-tetrafluoropyrrolidin-1-yl)ethyl)benzamide]
The IC50 of the first is 33-fold higher: 85 nM for the first, 2.6 nM for the second. The second is the more potent here.

First: O=C(NCC(c1ccc(C(F)F)nc1)N1CCC(F)(F)CC1)c1ccccc1Cl (single isomer, unassigned; (-)) [(−)2-chloro-N-[2-[6-(difluoromethyl)-3-pyridyl]-2-(4,4-diflu] [(−)2-chloro-N-(2-(2-(difluoromethyl)pyridin-5-yl)-2-(4,4-difluoropiperidin-1-yl)ethyl)benzamide]
Second: O=C(NCC(c1cnc(C(F)(F)F)nc1)N1CCC(F)(F)CC1)c1c(Cl)ccc(F)c1Cl (single isomer, unassigned; (+)) [(+)2,6-dichloro-N-[2-(4,4-difluoro-1-piperidyl)-2-[2-(triflu] [(+)2,6-dichloro-5-fluoro-N-(2-(4,4-difluoropiperidin-1-yl)-2-(2-(trifluoromethyl)pyrimidin-5-yl)ethyl)benzamide]
The IC50 of the first is 1.7-fold higher: 12 nM for the first, 7.1 nM for the second.

Compared with Cc1ncc(C(CNC(=O)c2ccc(Cl)cc2Cl)N2CCC(=O)CC2)cn1 (stereo not shown) [2,4-dichloro-N-(2-(2-methylpyrimidin-5-yl)-2-(-1-yl)ethyl)benzamide], Cc1ncc(C(CNC(=O)c2c(Cl)cccc2Cl)N2CCC(F)CC2)cn1 (single isomer, unassigned; (-)) [(−)2,6-dichloro-N-[2-(4-fluoro-1-piperidyl)-2-(2-methylpyrim] [(−)2,6-dichloro-N-(2-(4-fluoropiperidin-1-yl)-2-(2-methylpyrimidin-5-yl)ethyl)benzamide] is 18-fold lower in IC50: 970 nM for the first, 53 nM for the second. The second is the more potent here.

Cc1ncc(C(CNC(=O)c2c(F)cccc2Cl)N2CCCOCC2)cn1 (stereo not shown) [2-chloro-6-fluoro-N-(2-(2-methylpyrimidin-5-yl)-2-(1,4-oxazepan-4-yl)ethyl)benzamide] gave an IC50 of 820 nM.
